pEC50: −log10 of the molar value. “And” between values parts separate entries of the source, which are not always exact repeats. Equal values may be shown once.
Target: T1, human GPR119 (Homo sapiens, UniProt Q8TDV5)
T1 construct: host or cells: HEK293-CRE-β-lactamase cells expressing hGPR119
T1 sequence (Q8TDV5 1-335): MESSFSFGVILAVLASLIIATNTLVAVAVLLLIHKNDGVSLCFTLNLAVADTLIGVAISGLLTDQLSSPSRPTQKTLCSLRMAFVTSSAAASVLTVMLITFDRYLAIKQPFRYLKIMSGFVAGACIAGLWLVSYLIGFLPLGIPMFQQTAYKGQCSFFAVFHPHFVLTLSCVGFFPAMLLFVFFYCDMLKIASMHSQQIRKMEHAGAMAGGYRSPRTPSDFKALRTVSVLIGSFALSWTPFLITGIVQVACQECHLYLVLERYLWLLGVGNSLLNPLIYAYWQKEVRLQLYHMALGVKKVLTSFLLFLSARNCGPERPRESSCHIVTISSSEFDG
Experiment: GPR119 agonist cell-based hGPR119 HEK293-CRE β-lactamase reporter assay
Conditions: one value per run; for pEC50: hGPR119-HEK-CRE-β-lactamase cells, 16 hours incubation; for Emax: read-out: Intrinsic Activity*
Experimental: The assay for GPR119 agonists utilizes a cell-based (hGPR119 HEK293-CRE β-lactamase) reporter construct where agonist activation of human GPR119 is coupled to β-lactamase production via a cyclic AMP response element (CRE). GPR119 activity is then measured utilizing a FRET-enabled R-lactamase substrate, CCF4-AM (Live Blazer FRET-B/G Loading kit, Invitrogen cat #K1027). Specifically, hGPR119-HEK-CRE-β-lactamase cells (Invitrogen 2.5×10^7/mL) were removed from liquid nitrogen storage, and diluted in plating medium (Dulbecco's modified Eagle medium high glucose (DMEM; Gibco Cat #11995-065), 10% heat inactivated fetal bovine serum (HIFBS; Sigma Cat #F4135), 1× MEM Nonessential amino acids (Gibco Cat #15630-080), 25 mM HEPES pH 7.0 (Gibco Cat #15630-080), 200 nM potassium clavulanate (Sigma Cat #P3494). The cell concentration was adjusted using cell plating medium and 50 μL of this cell suspension (12.5×10^4 viablecells) was added into each well of a black, clear bottom, poly-d-lysine coated 384-well plate (Greiner Bio-One cat #781946) and incubated at 37° C. in a humidified environment containing 5% carbon dioxide. After 4 hours the plating medium was removed and replaced with 40 μL of assay medium (Assay medium is plating medium without potassium clavulanate and HIFBS). Varying concentrations of each compound to be tested was then added in a volume of 10 uL (final DMSO≦0.5%) and the cells were incubated for 16 hours at 37° C. in a humidified environment containing 5% carbon dioxide. Plates were removed from the incubator and allowed to equilibrate to room temperature for approximately 15 minutes. 10 uL of 6× CCF4/AM working dye solution (prepared according to instructions in the Live Blazer FRET-B/G Loading kit, Invitrogen cat #K1027) was added per well and incubated at room temperature for 2 hours in the dark. Fluorescence was measured on an EnVision fluorimetric plate reader, excitation 405 nm, emission 460 nm/535 nm. EC50 determinations were made from agonist-response curves analyzed with a curve fitting program using a 4-parameter logistic dose-response equation.

[1] = percent of maximal activity relative to standard GPR119 agonist at a final concentration of 10 μM

SMILES	pEC50	Intrinsic Activity* [1]	Emax [1] [%]
CC(C)OC(=O)N1C[C@H]2COC[C@@H](C1)[C@@H]2Oc1ncnc2c1CCN2c1ccc(S(C)(=O)=O)cc1F [Example 1, Isopropyl 9-syn-({7-[2-fluoro-4-(methylsulfonyl)phenyl]-6,7-dihydro-5H-pyrrolo[2,3-d]pyrimidin-4-yl}oxy)-3-oxa-7-azabicyclo[3.3.1]nonane-7-carboxylate]	7.98 and 7.89 and 7.63	88% and 87%	90
CC(C)OC(=O)N1C[C@H]2COC[C@@H](C1)[C@H]2Oc1ncnc2c1CCN2c1ccc(S(C)(=O)=O)cc1F [Example 2, Isopropyl 9-anti-({7-[2-fluoro-4-(methylsulfonyl)phenyl]-6,7-dihydro-5H-pyrrolo[2,3-d]pyrimidin-4-yl}oxy)-3-oxa-7-azabicyclo[3.3.1]nonane-7-carboxylate]	7.62		93

Source: patent publication US20120095028A1, “3-OXA-7-AZABICYCLO[3.3.1]NONANES” (Pfizer Inc., priority 2009, published 2012)
